Assay results: patent US10173991B2, “Sulfone amide linked benzothiazole inhibitors of endothelial lipase” (BRISTOL-MYERS SQUIBB COMPANY, priority 2014, dated 2019)

Molecular target: Endothelial lipase (EL) (Homo sapiens (Human), UniProt Q9Y5X9)
Experiment: Endothelial lipase (EL) enzymatic assay with fluorescent substrate A10070 in DMPG vesicles
Format: biochemical
Procedure: Endothelial lipase (EL) and hepatic lipase (HL) activities were measured using a fluorescent substrate, A10070, (Invitrogen, CA) doped into an artificial vesicle containing DMPG (Avanti Polar Lipids) as the excipient. Vesicles were prepared by combining 571 μL of 29 mM DMPG in a 1:1 mixture of MeOH and CHCl3 with 2000 μL of 1 mM A10070 in a 1:1 mixture of MeOH and CHCl3. The mixture was dried under nitrogen in multiple vials then resuspended in 20 mL total volume of 50 mM HEPES pH 8.0 buffer containing 50 mM NaCl and 0.2 mM EDTA. The sample was allowed to sit at room temperature for 15 min and then was sonicated 3×4 mins on ice with a Branson Sonicator using duty cycle 1. This preparation provides vesicles with a mole fraction of 0.11 for the FRET substrate.
The enzymatic assay was measured using 384-well white Optiplates. Each well contained 20 μL of assay buffer (50 mM HEPES pH 8.0, 50 mM NaCl and 1 mM CaCl2) and 0.25 μL of a DMSO solution containing a compound of interest. EL or HL (10 μL) was added and allowed to incubate with the compound for 30 min at 37° C. The source of EL was conditioned media obtained from HT-1080 cells that were transformed using RAGE technology (Athersys) to overexpress endogenous EL, and HL was partially purified from conditioned media obtained from COS cells overexpressing HL. The reaction was started by the addition of 10 μL of a 1:10 dilution of vesicles. The final total reaction volume was […]. The reaction rates were measured on a Gemini plate reader with an excitation wavelength of 490 nm and an emission wavelength of 530 nm. Readings were taken over a period of 60 minutes, and the slope between 300 and 900 secs of the readout was used to calculate the rate of the reaction.

Chain of Endothelial lipase (EL) (Q9Y5X9 21-500): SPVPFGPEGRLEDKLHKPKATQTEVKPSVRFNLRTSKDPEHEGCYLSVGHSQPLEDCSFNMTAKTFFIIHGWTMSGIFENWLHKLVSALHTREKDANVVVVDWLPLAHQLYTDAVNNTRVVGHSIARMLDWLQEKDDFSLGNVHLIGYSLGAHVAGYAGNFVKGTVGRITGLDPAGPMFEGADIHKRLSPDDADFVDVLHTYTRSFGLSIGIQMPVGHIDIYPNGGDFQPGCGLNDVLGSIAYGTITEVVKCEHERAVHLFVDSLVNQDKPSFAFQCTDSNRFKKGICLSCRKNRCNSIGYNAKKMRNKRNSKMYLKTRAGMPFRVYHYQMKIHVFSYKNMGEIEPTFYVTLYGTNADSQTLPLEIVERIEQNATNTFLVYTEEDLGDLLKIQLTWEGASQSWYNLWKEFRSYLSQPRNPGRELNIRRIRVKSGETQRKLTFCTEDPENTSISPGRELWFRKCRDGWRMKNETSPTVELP

Row | Compound | IC50
1 | COCCS(=O)(=O)C(C(=O)NCC(=O)NC1CC1)c1nc2cc(F)c(-c3cccc(Cl)c3)cc2s1 (stereo not drawn) [Example 40, 2-[6-(3-chlorophenyl)-5-fluoro-1,3-benzothiazol-2-yl]-N-[(cyclopropyl-carbamoyl)methyl]-2-(2-methoxyethane-sulfonyl)acetamide] | 0.003 µM
2 | CC(C)S(=O)(=O)C(C(=O)NCC(=O)NC1CC1)c1nc2cc(F)c(-c3cn(C)c(=O)c4ccccc34)cc2s1 (stereo not drawn) [Example 233, N-[(cyclopropyl-carbamoyl)methyl]-2-[5-fluoro-6-(2-methyl-1-oxo-1,2-dihydro-isoquinolin-4-yl)-1,3-benzothiazol-2-yl]-2-(propane-2-sulfonyl) acetamide] | 0.026 µM
3 | COCCS(=O)(=O)C(C(=O)NCC(=O)NC1CC1)c1nc2cc(F)c(-c3ccc(-c4nnc(C)o4)cc3)cc2s1 (stereo not drawn) [Example 147, N-[(cyclopropyl-carbamoyl)methyl]-2-{5-fluoro-6-[4-(5-methyl-1,3,4-oxadiazol-2-yl)phenyl]-1,3-benzothiazol-2-yl}-2-(2-methoxyethane-sulfonyl) acetamide] | 0.004 µM
4 | CC(=O)Nc1ccc(-c2ccc3nc(C(C(=O)NCC(=O)NC4CC4)S(C)(=O)=O)sc3c2)cc1 (stereo not drawn) [Example 102, N-[(cyclopropyl-carbamoyl)methyl]-2-[6-(4-acetamidophenyl)-1,3-benzothiazol-2-yl]-2-methanesulfonyl-acetamide] | 0.014 µM
5 | COCCS(=O)(=O)C(C(=O)NCC(=O)NC1CC1)c1nc2cc(-c3ccccc3)ccc2s1 (stereo not drawn) [Example 339, N-[(cyclopropyl-carbamoyl)methyl]-2-(2-methoxyethane-sulfonyl)-2-(5-phenyl-1,3-benzothiazol-2-yl)acetamide] | 0.215 µM
6 | COC(=O)Nc1ccc(-c2cc3sc(C(C(=O)NCC(=O)NC4CC4)S(=O)(=O)CC4CC4)nc3cc2F)cc1 (stereo not drawn) [Example 2, methyl N-{4-[2-({[(cyclopropyl-carbamoyl)methyl]carbamoyl} (cyclopropyl-methanesulfonyl)methyl)-5-fluoro-1,3-benzothiazol-6-yl]phenyl} carbamate] | 0.003 µM
7 | COCCS(=O)(=O)C(C(=O)NCC(=O)NC1CC1)c1nc2cc(F)c(-c3ccc4c(c3)C(=O)NC4)cc2s1 (stereo not drawn) [Example 154, N-[(cyclopropyl-carbamoyl)methyl]-2-[5-fluoro-6-(3-oxo-2,3-dihydro-1H-isoindol-5-yl)-1,3-benzothiazol-2-yl]-2-(2-methoxyethane-sulfonyl) acetamide] | 0.005 µM
8 | COCCS(=O)(=O)C(C(=O)NCC(=O)NC1(c2ccccn2)CC1)c1nc2ccc(-c3ccc(F)nc3)cc2s1 (stereo not drawn) [Example 388, 2-[6-(6-fluoropyridin-3-yl)-1,3-benzothiazol-2-yl]-2-(2-methoxyethane-sulfonyl)-N-({[1-(pyridin-2-yl)cyclopropyl]carbamoyl}methyl) acetamide] | 0.048 µM
9 | CC(C)n1cc(-c2cc3nc(C(C(=O)NCC(=O)NC4CC4)S(=O)(=O)C(C)C)sc3cc2F)ccc1=O (stereo not drawn) [Example 268, N-[(cyclopropyl-carbamoyl)methyl]-2-{6-fluoro-5-[6-oxo-1-(propan-2-yl)-1,6-dihydropyridin-3-yl]-1,3-benzothiazol-2-yl}-2-(propane-2-sulfonyl)acetamide] | 0.011 µM

More lines, in order of falling IC50, values ahead:

Row | IC50 | Compound
10 | 0.086 µM | CN(C)c1ccc(-c2ccc3nc(C(C(=O)NCC(=O)NC4CC4)S(=O)(=O)Cc4ccc(F)cc4)sc3c2)cn1 (stereo not drawn) [Example 224, N-[(cyclopropyl-carbamoyl)methyl]-2-{6-[6-(dimethylamino)pyridin-3-yl]-1,3-benzothiazol-2-yl}-2-[(4-fluorophenyl)methanesulfonyl] acetamide]
11 | 0.069 µM | COCCS(=O)(=O)C(C(=O)NCC(=O)NC1CC1)c1nc2cc(C(=O)N3CC(C)(OC)C3)c(F)cc2s1 (stereo not drawn) [Example 429, N-[(cyclopropyl-carbamoyl)methyl]-2-[6-fluoro-5-(3-methoxy-3-methylazetidine-1-carbonyl)-1,3-benzothiazol-2-yl}-2-(2-methoxyethane-sulfonyl)acetamide]
12 | 0.03 µM | COc1ccc(-c2cc3nc(C(C(=O)NCC(=O)NC4CC4)S(C)(=O)=O)sc3cc2F)cn1 (stereo not drawn) [Example 366, N-[(cyclopropyl-carbamoyl)methyl]-2-[6-fluoro-5-(6-methoxypyridin-3-yl)-1,3-benzothiazol-2-yl]-2-methanesulfonyl-acetamide]
13 | 0.029 µM | COCCS(=O)(=O)C(C(=O)NCC(=O)NC1CC1)c1nc2cc(-c3cnc(C)nc3)c(C)cc2s1 (stereo not drawn) [Example 184, N-[(cyclopropyl-carbamoyl)methyl]-2-(2-methoxyethane-sulfonyl)-2-[6-methyl-5-(2-methylpyrimidin-5-yl)-1,3-benzothiazol-2-yl]acetamide]
14 | 0.023 µM | CS(=O)(=O)C(C(=O)NCC(=O)NC1CC1)c1nc2cc(F)c(-c3cncc(F)c3)cc2s1 (stereo not drawn) [Example 323, N-[(cyclopropyl-carbamoyl)methyl]-2-[5-fluoro-6-(5-fluoropyridin-3-yl)-1,3-benzothiazol-2-yl]-2-methanesulfonyl-acetamide]
15 | 0.022 µM | COCCS(=O)(=O)C(C(=O)NCC(=O)NCC1CC1)c1nc2ccc(-c3ccc(F)nc3)cc2s1 (stereo not drawn) [Example 382, N-{[(cyclopropyl-methyl)carbamoyl]methyl}-2-[6-(6-fluoropyridin-3-yl)-1,3-benzothiazol-2-yl]-2-(2-methoxyethane-sulfonyl)acetamide]
16 | 0.017 µM | CC(=O)Nc1cccc(-c2cc3sc(C(C(=O)NCC(=O)NC4CC4)S(C)(=O)=O)nc3cc2F)c1 (stereo not drawn) [Example 116, N-[(cyclopropyl-carbamoyl)methyl]-2-[6-(3-acetamidophenyl)-5-fluoro-1,3-benzothiazol-2-yl]-2-methanesulfonyl-acetamide]
17 | 0.012 µM | Cc1cc(-c2cc3sc(C(C(=O)NCC(=O)NC4CC4)S(=O)(=O)C(C)C)nc3cc2F)ccn1 (stereo not drawn) [Example 245, N-[(cyclopropyl-carbamoyl)methyl]-2-[5-fluoro-6-(2-methylpyridin-4-yl)-1,3-benzothiazol-2-yl]-2-(propane-2-sulfonyl)acetamide]
18 | 0.01 µM | CN(C)S(=O)(=O)C(C(=O)NCC(=O)NC1CC1)c1nc2c(F)cc(-c3ccc(-c4nnn[nH]4)cc3)cc2s1 (stereo not drawn) [Example 504, N-[(cyclopropyl-carbamoyl)methyl]-2-(dimethyl-sulfamoyl)-2-{4-fluoro-6-[4-(1H-1,2,3,4-tetrazol-5-yl)phenyl]-1,3-benzothiazol-2-yl}acetamide]
19 | 0.008 µM | COCCNC(=O)c1ccc(-c2cc3sc(C(C(=O)NCC(=O)NC4CC4)S(=O)(=O)CCOC)nc3cc2Cl)cc1 (stereo not drawn) [Example 99, 4-[5-chloro-2-({[(cyclopropyl-carbamoyl)methyl]carbamoyl}(2-methoxyethane-sulfonyl)methyl)-1,3-benzothiazol-6-yl]-N-(2-methoxyethyl) benzamide]
20 | 0.007 µM | COCCS(=O)(=O)C(C(=O)NCC(=O)NC1CC1)c1nc2cc(F)c(-c3ccc(C(=O)NCCC#N)cc3)cc2s1 (stereo not drawn) [Example 42, N-(2-cyanoethyl)-4-[2-({[(cyclopropyl-carbamoyl)methyl]carbamoyl}(2-methoxyethane-sulfonyl)methyl)-5-fluoro-1,3-benzothiazol-6-yl] benzamide]
21 | 0.005 µM | COc1ncccc1-c1cc2sc(C(C(=O)NCC(=O)NC3CC3)S(C)(=O)=O)nc2cc1F (stereo not drawn) [Example 322, N-[(cyclopropyl-carbamoyl)methyl]-2-[5-fluoro-6-(2-methoxypyridin-3-yl)-1,3-benzothiazol-2-yl]-2-methanesulfonyl-acetamide]
